No end group written: not given here.
Key:
[1] = tested on: mucin I (crude mucin, type II from porcine stomach); experiment: Oscillatory rheometer measurement of mucin solution and mucin/TFF3 dimer gel-like material; details: for Elastic modules G′ / Viscous modulus G″: 2 ml 10% (w/v) mucin I + 10 mg TFF3 dimer in 0.4 ml water, 30 min, 20° C.
Experimental: FIG. 3. Oscillatory measurement of mucin solution (a) and mucin/TFF3 dimer peptide gel-like material (b). 2 ml of 10% (w/v) mucin I dissolved in 0.05% (w/v) sodiumazide was added 0.4 ml of water (a) or 0.4 ml of water containing 10 mg TFF3 dimer peptide (b). After 30 min at 20° C. a sinosoidally varying stress was applied and the strain response was detected at different frequencies. The complex viscosity (η*) ? the elastic modulus (G′) ? and the viscous modulus (G″) ? was calculated and plotted as a function of different frequencies.
(§1) Rheological measurements. Rheological properties were measured by the use of a rotational Reologica Rheometer (Reologica Instriments AB, Lund, Sweden). The instrument is equipped with a stainless steel C40 4 cone-plate (40 mm diameter plate with an angle of 4 degree) requiring a sample volume of at least 1.2 ml. The instrument was operated using instrument standard software (Version 3.6) allowing several different types of measurements. In the present study we have used the measuring programs: Constant Rate (viscosity and stress as a function of shear rate), Oscillation (complex viscosity, elastic modulus and viscous modulus at different frequencies) and Oscillation Stress Sweep (to identify the stress range inside which the measurement results are linear i.e. independent of the applied stress).
In order to characterise the mucin/TFF dimer peptide gel-like structure, the technique of oscillatory measurement in which the gel-like material are subjected to a sinusoidaily varying stress is applied and the strain response is measured. Before this measurement is carried out an oscillation stress sweep programme is used to define the so-called linear viscoelastic region. Inside this region no change of the mucin/TFF dimer peptide structure occurs and the relation between the applied stress and the measured quantities is linear.
This type of experiments allow the estimation of several rheological parameters as a function of frequency: complex viscosity η*, elastic modulus G′ and viscous modulus G″ (for detailed rheological theory see Barnes, H. A. (1989) An introduction to rheology. Elsevier and Ferguson, J. and Kemblowski, Z. (1991) Applied fluid rheology. Elsevier)

[2] = tested on: mucin I (crude mucin, type II from porcine stomach); experiment: Viscosity versus shear rate (constant rate rheometer programme); details: 2 ml 10% (w/v) mucin I + 7.05 mg TFF3 dimer; 30 min, 20° C.; FIG. 4
Experimental: FIG. 4. Viscosity versus shear rate of TFF3 dimer peptides. 2 ml 10% (w/v) mucin I dissolved in 0.05% sodiumazide was added 7.05 mg TFF3 dimer dissolved in water. After 30 min at 20° C. the viscosity was measured as function of shear rate using the software programme: “constant rate”. ? mucin I alone; Δ—Δ: mucin I+TFF3 dimer.
as §1

[3] = tested on: Mitomycin C induced colitis; experiment: Mitomycin C induced colitis model, luminal TFF3; type: in vivo, rat
From the text: (§2) Methods: 32 female wistar rats weighing 200 g were used in the study. The effect of luminal TFF3 was investigated in two rat models of colitis—the Mitomycin C induced colitis model (Keshavarzian A. et al. J. Lab Clin. Med. 1992; 120:778-91) and the dextran induced colitis model (Mottet N K. Gastroenterology 1972; 62:1269-71). TFF3 was administrated directly into the proximal part of the colon by means of a soft polyethylene tube which in anaesthezised rats at a laparotomy, was inserted into the colonic lumen, secured by 6-0 silk sutures and lead subcutaneously to the neck region of the rat.
Mitomycin C colitis: In 16 rats colitis was induced by means of Mitomycin C, 3.75 mg/kg. Eight of the rats were given TFF3, 5 mg/kg in 0.5 ml H2O, two times each day from day 4-7 into the colonic tube. The 8 controls received NaCl. The rats were sacrificed by means of an overdose of barbiturate 8 days after mitomycin administration. The colon was fixed by intraluminal injection of 10% formalin, and after 10 minutes opened and suspended on a polyethylene plate. […] The colonic specimens were investigated by means of a Wild Photomacroscope—the extent of disease and the number of ulcerations were quantitated. […] The severety of colitis was scored by means of a histologic colitis score (FIG. 5, Williams K L. et al. Gastroenterology 2001; 120:925-37).

[4] = tested on: dextran induced colitis; experiment: Dextran induced colitis model, luminal TFF3; type: in vivo, rat
From the text: as §2
Dextran colitis: In 16 rats colitis was induced by means of dextran sulphate sodium 5% administered in the drinking water. Eight of the rats were given TFF3, 5 mg/kg in 0.5 ml H2O into the colonic tube, two times each day from the day before the initiation of dextran supplementation till day 9, where the rats were sacrificed. The 8 controls recieved NaCl. The rats were sacrificed by means of an overdose of barbiturate. The colon was fixed by intraluminal injection of 10% formalin, and after 10 minutes opened and suspended on a polyethylene plate. After further 24 hours fixation the specimens were flushed with water and surface stained with 0.3% Alcian Green 3BX. The colonic specimens were investigated by means of a Wild Photomacroscope—the extent of disease and the number of ulcerations were quantitated. For histologic analysis specimens were taken out (in a blinded way) from the proximal, middle and distal colon and embedded in paraffin. Histologic sections of 5 μm were stained with PAS-hematoxylin-aurentia. The severety of colitis was scored by means of a histologic colitis score (Williams K L. et al. Gastroenterology 2001; 120:925-37).

Substance	Elastic modules G′ ([1]; 0.01 Hz)	Viscous modulus G″ ([1]; 0.01 Hz)	Elastic modules G′ ([1]; 0.1 Hz)	Viscous modulus G″ ([1]; 0.1 Hz)	Elastic modules G′ ([1]; 1 Hz)	Viscous modulus G″ ([1]; 1 Hz)	Elastic modulus and viscous modulus compared to the mucin solution ([1]; mucin/TFF3 dimer gel-like structure vs mucin solution)	Effect on the viscosity of the mucin I solution [2]	Overall colitis score (histologic) ([3]; rat, TFF3 5 mg/kg intraluminal twice daily day 4-7, control (NaCl) 10.8, p<0.01)	Severity of mitomycin induced colitis ([3]; rats, intraluminal treatment)	Overall colitis score (histologic) ([4]; rat, TFF3 5 mg/kg intraluminal twice daily till day 9, control (NaCl) 3.18, p<0.05)	Histologic colitis score in the midsegment of the colon ([4]; rat, TFF3 5 mg/kg intraluminal twice daily, control 1.8, p<0.05)	Severity of dextran induced colitis ([4]; rats, intraluminal treatment)
TFF3 dimer: dimer form of recombinant human TFF3; two TFF3 monomers linked by a disulfide bond between Cys57 of each monomer (EEYVGLSANQCAVPAKDRVDCGYPHVTPKECNNRGCCFDSRIPGVPWCFKPLQEAECTF; not fully specified (bridges); also: homodimer via disulfide between Cys57 of each monomer)	19 Pa	18 Pa	52 Pa	37 Pa	86 Pa	54 Pa	dramatically increased	significant effect	–	–	–	–	–
TFF3: trefoil factor 3 given intraluminally to rats; Example 2 does not state monomer or dimer form (EEYVGLSANQCAVPAKDRVDCGYPHVTPKECNNRGCCFDSRIPGVPWCFKPLQEAECTF; not fully specified (bridges); cysteine pairing not given here; UniProt Q07654 22-80, looked up)	–	–	–	–	–	–	–	–	3.4	reduces the severity	1.1	0.4	reduces the severity

— patent US20100184644A1, “MUCOSAL REPAIR BY TFF DIMER PEPTIDES” (priority 2001, published 2010)
